Measurements: patent EP0565593B1, “REDUCING PESTICIDAL INTERACTIONS IN CROPS” (priority 1990, dated 1992)

Tested on: SJCA
Assay: Greenhouse test Procedure IV: herbicide, biocide and antidote PPI, weed SJCA (Examples 53-55; Tables 52-54)
Assay type: in vivo
Conditions: all PPI; for % Inhibition SJCA: Herbicide No. 1, rate printed as '-'
Description: The test in this example paralleled that in Example 51, except the procedure was according to Procedure IV above and the herbicides used were No. 1 (MON-12000); No. 21 (XRD-498) and, again, No. 18 (PURSUIT); the biocide was, again, MOCAP®. Observations were taken thirteen (13) days after PPI treatment with biocide and antidote.
This test was identical to that in Example 52, except for use of a different biocide, DIAZINON (Biocide No. 5, a nematicide and soil insecticide).
This test was also identical to that in the preceding two examples, except that the biocide was malathion (No. 7, an insecticide).
This test was identical to the preceding ones, except the biocide was DPX-43898 (No. 6, active ingredient in FORTRESS® insecticide, a soil insecticide). Also, the observation time was fourteen (14) days after PPI initiation.

COC(=O)c1c(Cl)nn(C)c1S(=O)(=O)NC(=O)Nc1nc(OC)cc(OC)n1 [Herbicide No. 1, N-[(4,6-dimethoxypyrimidin-2-yl)aminocarbonyl]-3-chloro-4-methoxycarbonyl-5-sulfonamide, reference compound]
inhibition at 140 g/ha (312 h, Table 52, Herbicide No. 1 0.14 Kg/Ha, where applied Biocide No. 5 8.96 kg/Ha and antidote 4.48 Kg/Ha, observed 13 days after treatment): 70% | % Inhibition SJCA (Table 53, where applied Biocide No. 7 8.96 kg/Ha and antidote 4.48 Kg/Ha, observed 13 days after treatment): 75% | % Inhibition SJCA (Table 54, where applied Biocide No. 6 8.96 kg/Ha and antidote 4.48 Kg/Ha, observed 14 days after PPI initiation): 65%
